Measurements reported in patent US20240158446A1, “CYCLIC COMPOUND HAVING SELECTIVE INHIBITORY ACTION ON KRAS OVER HRAS AND NRAS” (CHUGAI SEIYAKU KABUSHIKI KAISHA, priority 2021, published 2024).
*1 amine or outer side, *2 acyl side, *3 side chain or, on linkers, in order; H or OH if unused. Where a SMILES comes first, the peptide text is derived from it. Bridges are numbered along the chain shown (N, C = ends). [ ]: non-standard residue; d: D form. hPhe(3-Cl-4-CF3) = N[C@@H](CCc1ccc(C(F)(F)F)c(Cl)c1)C(=O)O; NPrPhe(4-CF3) = CCCN[C@@H](Cc1ccc(C(F)(F)F)cc1)C(=O)O; NEtAsp = CCN([C@@H](CC(=O)[*:3])C(=O)[*:2])[*:1]; NMeGly(cPent) = CN[C@H](C(=O)O)C1CCCC1; NMeL = CN[C@@H](CC(C)C)C(=O)O; Ac4c = NC1(C(=O)O)CCC1; Sar = CNCC(=O)O

Assays:
[1] = molecular target: GDP-bound HRAS wild-type protein (Homo sapiens, UniProt P01112); assay: Binding to HRAS by surface plasmon resonance (SPR), Single Cycle Kinetics; conditions: ratio of KD for GDP-bound HRAS wild-type protein to KD for KRAS, SPR
GDP-bound HRAS wild-type protein, sequence (P01112 whole entry): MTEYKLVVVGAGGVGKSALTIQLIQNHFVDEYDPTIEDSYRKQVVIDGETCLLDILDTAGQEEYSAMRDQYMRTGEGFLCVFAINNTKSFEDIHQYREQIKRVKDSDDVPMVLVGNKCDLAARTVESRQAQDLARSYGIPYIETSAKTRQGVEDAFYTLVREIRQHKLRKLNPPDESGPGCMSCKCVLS

[2] = molecular target: GDP-bound NRAS wild-type protein (Homo sapiens, UniProt P01111); assay: Binding to NRAS by surface plasmon resonance (SPR), Single Cycle Kinetics; conditions: ratio of KD for GDP-bound NRAS wild-type protein to KD for KRAS, SPR
GDP-bound NRAS wild-type protein, sequence (P01111 whole entry): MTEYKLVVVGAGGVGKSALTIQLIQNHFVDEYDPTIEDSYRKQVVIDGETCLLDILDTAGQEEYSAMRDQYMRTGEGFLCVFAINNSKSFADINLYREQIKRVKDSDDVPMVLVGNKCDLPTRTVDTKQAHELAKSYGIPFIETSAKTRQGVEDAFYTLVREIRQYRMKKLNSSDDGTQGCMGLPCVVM

[3] = system: human lung cancer strain NCI-H441; assay: cells; conditions: NCI-H441, 96 h, read-out: NCI-H441 IC50 (nM), NCI-H441 cell proliferation, 4 days, CellTiter-Glo;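 further: cell proliferation inhibition after four days measured by CellTiter-Glo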
[4] = molecular target: GDP-bound KRAS wild-type protein (Homo sapiens, UniProt P01116); assay: Binding to KRAS by surface plasmon resonance (SPR), Single Cycle Kinetics; conditions: SPR, Single Cycle Kinetics, GDP-bound KRAS wild-type protein; read-out: KRAS KD
GDP-bound KRAS wild-type protein, sequence (P01116 whole entry): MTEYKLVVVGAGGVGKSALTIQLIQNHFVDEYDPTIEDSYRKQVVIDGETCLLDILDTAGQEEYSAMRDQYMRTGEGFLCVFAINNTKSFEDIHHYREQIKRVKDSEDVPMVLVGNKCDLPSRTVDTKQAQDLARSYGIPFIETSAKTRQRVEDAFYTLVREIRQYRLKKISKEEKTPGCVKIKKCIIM

| IC50 [3] [nM] | Kd [4] [nM] | SMILES | HRAS/KRAS (KD ratio) [1] | NRAS/KRAS (KD ratio) [2] |
| --- | --- | --- | --- | --- |
| 17.8 | 0.21 | CCCOC[C@H]1C(=O)N[C@@H]([C@@H](C)CC)C(=O)N(C)CC(=O)N(C)[C@H]2C/C=C\CCN(C2=O)[C@@H](Cc2ccc(C(F)(F)F)cc2)C(=O)N(C)CC(=O)N[C@@H](CCc2ccc(C(F)(F)F)c(OC)c2)C(=O)N2C[C@@H](C)C[C@H]2C(=O)NC2(CC(C)(C)C2)C(=O)N(C)[C@@H](C2CCCC2)C(=O)N(C)[C@H](C(=O)N(C)CC)CC(=O)N1C [PP1995] | B (a compound having 3 or more and less than 10 is denoted as B) | A (a compound having 10 or more and less than 20 is denoted as A) |
| 7.8 | 0.083 | CC[C@H](C)[C@@H]1NC(=O)[C@H](C2CC2)N(C)C(=O)C[C@@H](C(=O)N(C)C)N(C)C(=O)[C@H](C2CCCC2)N(C)C(=O)C2(CCC2)N(C)C(=O)[C@@H]2CCCN2C(=O)[C@H](CCc2cc(F)c(C(F)(F)F)c(F)c2)NC(=O)CN(C)C(=O)[C@H](Cc2ccc(C)cc2)N2CC/C=C\C[C@@H](C2=O)N(C)C(=O)CN(C)C1=O [PP1784] | B (a compound having 3 or more and less than 10 is denoted as B) | A (a compound having 10 or more and less than 20 is denoted as A) |
| 11.1 | 0.19 | CCCN(C)C(=O)[C@@H]1CC(=O)N(C)[C@@H](CC(F)F)C(=O)N[C@@H]([C@@H](C)CC)C(=O)N(C)CC(=O)N(C)[C@H]2C/C=C\CCN(C2=O)[C@@H](Cc2ccc(C(F)(F)F)cc2)C(=O)N(C)CC(=O)N[C@@H](CCc2ccc(C(F)(F)F)c(OC)c2)C(=O)N2C[C@@H](C)C[C@H]2C(=O)NC2(CC(C)(C)C2)C(=O)N(C)[C@@H](C2CCCC2)C(=O)N1C [PP1989] | A (a compound having 10 or more and less than 20 is denoted as A) | A (a compound having 10 or more and less than 20 is denoted as A) |
| 12.9 | 0.78 | CCC[C@H]1C(=O)N[C@@H]([C@@H](C)CC)C(=O)N(C)CC(=O)N(C)[C@H]2C/C=C\CCN(C2=O)[C@@H](Cc2ccc(C(F)(F)F)cc2)C(=O)N(C)CC(=O)N[C@@H](CCc2cc(F)c(C(F)(F)F)c(F)c2)C(=O)N2C[C@H](OCC)C[C@H]2C(=O)NC2(CCC2)C(=O)N(C)[C@@H](C2CCCC2)C(=O)N(CCC)[C@H](C(=O)N(C)C)CC(=O)N1C [PP1769] | A (a compound having 10 or more and less than 20 is denoted as A) | A (a compound having 10 or more and less than 20 is denoted as A) |
| 2.2 | 0.28 | CCCN1C(=O)CN(C)C(=O)CN(C)C(=O)[C@H]([C@@H](C)CC)NC(=O)[C@H](CC(C)C)N(C)C(=O)C[C@@H](C(=O)N(C)C)N(CC)C(=O)[C@H](C2CCCC2)N(C)C(=O)C2(CCC2)NC(=O)[C@@H]2CCCN2C(=O)[C@H](CCc2ccc(C(F)(F)F)c(Cl)c2)NC(=O)CN(C)C(=O)[C@@H]1Cc1ccc(C(F)(F)F)cc1 [PP1956] ([NMeL]I[Sar][Sar][NPrPhe(4-CF3)][Sar][hPhe(3-Cl-4-CF3)]P[Ac4c][NMeGly(cPent)][NEtAsp]-NMe2; lactam N-11) | B (a compound having 3 or more and less than 10 is denoted as B) | B (a compound having 3 or more and less than 10 is denoted as B) |
| 9.7 | 0.23 | CCC[C@H]1C(=O)N[C@@H]([C@@H](C)CC)C(=O)N2CC[C@H]2C(=O)N(C)[C@H]2C/C=C\CCN(C2=O)[C@@H](Cc2ccc(C(F)(F)F)cc2)C(=O)N(C)CC(=O)N[C@@H](CCc2cc(F)c(C(F)(F)F)c(F)c2)C(=O)N2C[C@H](OCC)C[C@H]2C(=O)NC2(CC(C)(C)C2)C(=O)N(C)[C@@H](C2CCCC2)C(=O)N(C)[C@H](C(=O)N(C)C)CC(=O)N1C [PP1925] | A (a compound having 10 or more and less than 20 is denoted as A) | A (a compound having 10 or more and less than 20 is denoted as A) |
